Laboratory results as given in patent US20170003277A1 (priority 2015, published 2017).

Experiments:
mouse splenocytes = assay: Microarray gene expression of splenocytes from Copaxone- or Polimunol-immunized mice activated ex vivo with Copaxone or Polimunol; format: cell-based
Experimental: All experimental procedures conformed to accepted ethical standards for use of animals in research and were in accordance with Committee for the Care and Use of Experimental Animals guidelines and approved by the Teva Institutional Animal Care and Use Committee. For these experiments, 8- to 12-week-old female (Balb/c X SJL) F1 mice (Janvier, France) were purchased. Mice were kept at 21±3° C.; the relative humidity was 30-70%, the light/dark cycle was 12/12 h. Animals were maintained on a standard rodent pellet diet and sterile filtered tap water available ad libitum.
To stimulate induction of GA-reactive T cells, twelve mice were injected with 100 μL of a 2.5 mg/mL solution of GA reference standard (GA-RS) in phosphate-buffered saline (250 μg GARS per mouse). GA-RS (Teva) is a selected GA drug substance batch defined as the standard batch and used as a reference in quality control release tests of all Copaxone® batches. Another group of twelve mice were injected with 100 μL of a 2.5 mg/mL solution of Polimunol in phosphate-buffered saline (250 μg Polimunol per mouse). Polimunol is a proposed generic manufactured a company other than Teva. […] A single cell suspension was prepared. After red blood cells lysis, splenocytes from the same immunization group were pulled and resuspended to a final concentration of 10×10^6 cells/mL in defined cell culture media (DCCM1) (Biological Industries, Beit Haemek, Israel) (96.7% v/v) enriched with L-glutamine 2 mM (1% v/v), MEM Non-Essential Amino Acids 2 mM (1% v/v), sodium pyruvate 1 mM (1% v/v), antibiotic/antimycotic solution (0.2% v/v) and 2-mercaptoethanol 50 mM (0.1% v/v).
Splenocytes were treated with activator samples diluted in medium (125 μL per well of 80 μg/mL solutions, final concentration in the well: 40 μg/mL) of: i) 3 different batches of GA drug product manufactured by Teva ii) one batch of proposed generic (Polimunol). Polimunol is a product marketed as generic GA and manufactured by a company other than Teva (i.e. Synthon). […] Splenocytes (125 μL 10×10^6 SPL cell/mL suspension) were added to the activator solutions. Each activator sample was loaded in two different plates. One for the cells from mice immunized with GA and one for cells from mice immunized with proposed generic. Plates were incubated for 24 h at 37° C. Cells were collected from the wells and were centrifuged at 300 g for 5 minutes. Supernatants were aspirated and cell pellets were resuspended in RLT buffer (from RNeasy mini kit of Qiagen, Cat #74106) for cell lysis. The cell lysates were centrifuged and supernatants were collected and frozen at −70° C. Samples were sent for further processing.
For additional detail on experimental methods used in mouse studies, please refer to publications [Bakshi et al; Towfic et al]. Note that in this study, mice were immunized with either Copaxone® or Polimunol, and subsequently splenocytes were isolated and treated ex vivo with Copaxone® or Polimunol. RNA was extracted and expression profiled across the entire genome using the Affymetrix Mouse Genome 430 2 chip. Three lots of Copaxone®, and one lot of Polimunol were comparatively tested in six replicates each.
Outlier samples were identified using the R package ArrayQCMetrics and excluded from further data processing steps. A sample was considered an outlier if it failed more than half of the included tests either before or after RMA normalization. Data were RMA normalized using the Affy R package.
Correction for batch variation was performed using ComBat as described above (THP-1 methods). Date of microarray experiment was used as batch, and the combination of treatment and immunization was used as covariate.
Differentially expressed probesets were identified across conditions using linear models for microarray data (LIMMA; Smyth, G. K. (2004)), a standard R Bioconductor package. Linear models and empirical Bayes methods for assessing differential expression in microarray experiments. […]

human PBMC = assay: Immunological cell type enrichment for genes modulated by GA in human PBMC; format: in vivo; parameters: Score: scale not given here
Source text: Genome-wide expression profiles in cells from three different datasets in two different species (human, mouse) were studied. LIMMA was utilized to identify a genome-wide list of differentially expressed genes induced by GA in the primed and ex vivo stimulated mouse splenocytes, as well as in the THP-1 human monocyte cell line. Repeated-measures ANOVA was utilized to find a genome-wide list of genes modulated by GA in treated MS patients. Advanced enrichment algorithms were then applied to elucidate the pathways and cell types modulated by GA.
In addition to the shared induced effects discussed above, each system and platform clearly captured different aspects of GA's impact on the immune system. […] In human PBMCs, genes associated with immune cell types were modulated early in treatment (by month 3), including certain cell types affected in prior systems, but also distinct cell types, such as megakaryocytes and myeloid progenitors (Table 11).

[1] = BASO1.rnk, Upregulated, Cluster 2
[2] = BCELLA1.rnk, Downregulated, Cluster 0
[3] = BCELLA2.rnk, Downregulated, Cluster 0
[4] = BCELLA3.rnk, Downregulated, Cluster 0
[5] = BCELLA4.rnk, Downregulated, Cluster 0
[6] = CMP.rnk, Upregulated, Cluster 4
[7] = EOS2.rnk, Upregulated, Cluster 2
[8] = ERY1.rnk, Upregulated, Cluster 2
[9] = ERY1.rnk, Upregulated, Cluster 4
[10] = ERY2.rnk, Upregulated, Cluster 2
[11] = ERY2.rnk, Upregulated, Cluster 4
[12] = ERY3.rnk, Upregulated, Cluster 2
[13] = ERY3.rnk, Upregulated, Cluster 4
[14] = ERY4.rnk, Upregulated, Cluster 2
[15] = ERY4.rnk, Upregulated, Cluster 4
[16] = ERY5.rnk, Upregulated, Cluster 2
[17] = ERY5.rnk, Upregulated, Cluster 4
[18] = GMP.rnk, Upregulated, Cluster 4
[19] = GRAN1.rnk, Upregulated, Cluster 2
[20] = GRAN2.rnk, Upregulated, Cluster 4
[21] = HSC3.rnk, Upregulated, Cluster 4
[22] = MEGA1.rnk, Upregulated, Cluster 4
[23] = MEGA2.rnk, Upregulated, Cluster 0
[24] = MEGA2.rnk, Upregulated, Cluster 4
[25] = MEP.rnk, Upregulated, Cluster 2
[26] = PRE_BCELL3.rnk, Upregulated, Cluster 2

glatiramer acetate [Copaxone®] was tested, and the Foxp3 expression (mouse splenocytes; Copaxone immunization, adj p<3.4e-23) was “upregulated”, the Gpr83 expression (mouse splenocytes; Copaxone immunization, two probesets, adj p<4.2e-33 and 9.0e-31) was “upregulated” and the “Probesets downregulated by Copaxone relative to medium” value (mouse splenocytes; Copaxone-immunized mice) was 8,305. For the same substance, the “Probesets downregulated by Copaxone relative to medium, |FC|≧2” value (mouse splenocytes; Copaxone-immunized mice) was 485, the “Probesets significantly modulated by Copaxone relative to medium” value (mouse splenocytes; Copaxone-immunized mice) was 16,647 and the “Probesets upregulated by Copaxone relative to medium” value (mouse splenocytes; Copaxone-immunized mice) was 8,342. For the same substance, the “Probesets upregulated by Copaxone relative to medium, |FC|≧2” value (mouse splenocytes; Copaxone-immunized mice) was 411, the Score (human PBMC; [1]) was 87.3 and the p.val (human PBMC; [1]) was 0.00322. For the same substance, the Score (human PBMC; [2]) was −19.11, the p.val (human PBMC; [2]) was 0.002737 and the Score (human PBMC; [3]) was −25.77. The p.val (human PBMC; [3]) was 0.0004201, the Score (human PBMC; [4]) was −20.11 and the p.val (human PBMC; [4]) was 0.001385. For the same substance, the Score (human PBMC; [5]) was −21.51, the p.val (human PBMC; [5]) was 0.002538 and the Score (human PBMC; [6]) was 23.19. The p.val (human PBMC; [6]) was 0.002214, the Score (human PBMC; [7]) was 62.69 and the p.val (human PBMC; [7]) was 0.002286. The Score (human PBMC; [8]) was 28.25, the p.val (human PBMC; [8]) was 0.003043 and the Score (human PBMC; [9]) was 45. It also gave a p.val (human PBMC; [9]) of 0.002587, a Score (human PBMC; [10]) of 32.83 and a p.val (human PBMC; [10]) of 8.43E−05. It also gave a Score (human PBMC; [11]) of 47.25, a p.val (human PBMC; [11]) of 4.70E−06 and a Score (human PBMC; [12]) of 84.62. For the same substance, the p.val (human PBMC; [12]) was 0.0002869, the Score (human PBMC; [13]) was 90.02 and the p.val (human PBMC; [13]) was 0.009061. The Score (human PBMC; [14]) was 69.44, the p.val (human PBMC; [14]) was 0.0001417 and the Score (human PBMC; [15]) was 77.38. The p.val (human PBMC; [15]) was 0.001966, the Score (human PBMC; [16]) was 64.23 and the p.val (human PBMC; [16]) was 9.88E−07. The Score (human PBMC; [17]) was 73.42, the p.val (human PBMC; [17]) was 0.0009808 and the Score (human PBMC; [18]) was 33.13. The p.val (human PBMC; [18]) was 0.0001427, the Score (human PBMC; [19]) was 55.17 and the p.val (human PBMC; [19]) was 0.0005577. It also gave a Score (human PBMC; [20]) of 35.18, a p.val (human PBMC; [20]) of 0.00875 and a Score (human PBMC; [21]) of 45.41. The p.val (human PBMC; [21]) was 0.0002875, the Score (human PBMC; [22]) was 38.05 and the p.val (human PBMC; [22]) was 4.66E−09. It also gave a Score (human PBMC; [23]) of 32.43, a p.val (human PBMC; [23]) of 1.24E−12 and a Score (human PBMC; [24]) of 64.46. For the same substance, the p.val (human PBMC; [24]) was 4.41E−12, the Score (human PBMC; [25]) was 30.54 and the p.val (human PBMC; [25]) was 0.009388. For the same substance, the Score (human PBMC; [26]) was 57.94 and the p.val (human PBMC; [26]) was 3.98E−08.
